Reference: the NIST ThermoML archive (doi:10.1007/s10765-009-0602-6)

Assay: molar heat capacity at constant volume; xn = mol fraction of the nth substance listed
Conditions: Fluid (supercritical or subcritical phases), isochoric heat capacity, x1 = 0.2607

N [ammonia] + O
Conditions	molar heat capacity at constant volume [J/K/mol]
602.99 K, Mass density=227.54 kg/m3	102.11
602.99 K, Mass density=230.31 kg/m3	103.53
602.99 K, Mass density=311.19 kg/m3	92.66
602.99 K, Mass density=342.18 kg/m3	84.9
603.01 K, Mass density=218.92 kg/m3	92.95
603.08 K, Mass density=205.58 kg/m3	71.27
603.08 K, Mass density=214.83 kg/m3	91.92
603.08 K, Mass density=218.92 kg/m3	93.46
603.08 K, Mass density=224.53 kg/m3	102.11
603.08 K, Mass density=227.54 kg/m3	94.83
603.08 K, Mass density=230.31 kg/m3	97.85
603.08 K, Mass density=311.19 kg/m3	88.26
603.1 K, Mass density=214.83 kg/m3	85.33
603.16 K, Mass density=205.58 kg/m3	70.95
603.16 K, Mass density=227.54 kg/m3	89.2
603.16 K, Mass density=230.31 kg/m3	92.7
603.16 K, Mass density=311.19 kg/m3	87
603.17 K, Mass density=224.53 kg/m3	98.9
603.17 K, Mass density=243.98 kg/m3	88.9
603.17 K, Mass density=260.02 kg/m3	88.9
603.25 K, Mass density=205.58 kg/m3	73.52
603.25 K, Mass density=224.53 kg/m3	95.33
603.25 K, Mass density=227.54 kg/m3	90.78
603.25 K, Mass density=311.19 kg/m3	89.86
603.26 K, Mass density=230.31 kg/m3	91.49
603.26 K, Mass density=243.98 kg/m3	86.61
603.26 K, Mass density=260.02 kg/m3	86.61
603.33 K, Mass density=224.53 kg/m3	94.9
603.34 K, Mass density=205.58 kg/m3	69.68
603.34 K, Mass density=243.98 kg/m3	87.69
603.34 K, Mass density=260.02 kg/m3	87.69
603.42 K, Mass density=205.58 kg/m3	67.87
603.42 K, Mass density=224.53 kg/m3	95.2
603.42 K, Mass density=311.19 kg/m3	88.62
603.43 K, Mass density=243.98 kg/m3	88.17
603.43 K, Mass density=260.02 kg/m3	88.17
603.51 K, Mass density=205.58 kg/m3	72.19
603.51 K, Mass density=243.98 kg/m3	85.63
603.51 K, Mass density=260.02 kg/m3	85.63
603.58 K, Mass density=243.98 kg/m3	83.27
603.58 K, Mass density=260.02 kg/m3	83.27
603.59 K, Mass density=205.58 kg/m3	69.01
603.59 K, Mass density=227.54 kg/m3	89.22
603.6 K, Mass density=214.83 kg/m3	85.67
603.67 K, Mass density=230.31 kg/m3	84.99
603.68 K, Mass density=214.83 kg/m3	84.57
603.68 K, Mass density=227.54 kg/m3	87.34
603.69 K, Mass density=243.98 kg/m3	85.13
603.69 K, Mass density=260.02 kg/m3	85.13
603.76 K, Mass density=227.54 kg/m3	89.27
603.77 K, Mass density=214.83 kg/m3	81.81
603.77 K, Mass density=218.92 kg/m3	89.86
603.78 K, Mass density=243.98 kg/m3	82.7
603.78 K, Mass density=260.02 kg/m3	82.7
603.85 K, Mass density=224.53 kg/m3	94
603.85 K, Mass density=227.54 kg/m3	85.53
603.86 K, Mass density=218.92 kg/m3	86.91
603.86 K, Mass density=260.02 kg/m3	83.32
603.92 K, Mass density=214.83 kg/m3	84.57
603.93 K, Mass density=227.54 kg/m3	84.41
603.94 K, Mass density=224.53 kg/m3	94.9
603.94 K, Mass density=230.31 kg/m3	86.75
604.02 K, Mass density=224.53 kg/m3	91.83
604.02 K, Mass density=227.54 kg/m3	87.55
604.04 K, Mass density=214.83 kg/m3	80.85
604.09 K, Mass density=214.83 kg/m3	82.56
604.11 K, Mass density=224.53 kg/m3	94.23
604.11 K, Mass density=227.54 kg/m3	83.91
604.12 K, Mass density=230.31 kg/m3	81.87
604.19 K, Mass density=224.53 kg/m3	93.25
604.19 K, Mass density=227.54 kg/m3	84.67
604.2 K, Mass density=214.83 kg/m3	82.1
604.28 K, Mass density=214.83 kg/m3	79.51
604.28 K, Mass density=224.53 kg/m3	89.96
604.28 K, Mass density=227.54 kg/m3	86.4
604.31 K, Mass density=230.31 kg/m3	80.09
604.36 K, Mass density=224.53 kg/m3	91.15
604.43 K, Mass density=230.31 kg/m3	85.06
604.45 K, Mass density=224.53 kg/m3	90.84
604.52 K, Mass density=230.31 kg/m3	82.6
605.13 K, Mass density=329 kg/m3	85.88
605.22 K, Mass density=329 kg/m3	88.22
